Results taken from patent US10697020B2, “MicroRNA-129 as a biomarker for colorectal cancer” (THE RESEARCH FOUNDATION FOR THE STATE UNIVERSITY OF NEW YORK, priority 2013, dated 2020).
Like-named read-outs stand apart in the source and are kept apart here.

Columns and labels:
E2F3 = assay: Western immunoblot analysis of E2F3 protein in HCT116 cells; type: cell-based, human; settings: HCT116 cells after miR-129 transfection
Method: (§1) HCT116, RKO and SW480 cells were plated in 6-well plates at 2×10^5, 1×10^5 and 1×10^5 per well, respectively. Twenty-four hours after plating, 100 nM of miR-129 precursor (Ambion, Carlsbad, Calif., USA) or siRNA against BCL2 (Dharmacon, Lafayette, Colo., USA) were transfected to the cells with oligofectamine (Invitrogen, Carlsbad, Calif., USA) in accordance with the manufacturer's protocol. Negative miRNA (Ambion) was also transfected as a negative control.
Forty-eight hours after transfection, cells were lysed with RIPA buffer (Sigma-Aldrich), and Western immunoblotting was performed using standard procedures. The primary antibodies used for the analysis were mouse anti-human BCL2 antibody (1:200; Thermo Fisher Scientific, Fremont, Calif., USA), rabbit anti-human cleaved caspase-3 antibody (1:200; Cell Signaling Technology, Beverly, Mass., USA), rabbit anti-human cleaved caspase-9 antibody (1:200; Cell Signaling Technology), mouse anti-human E2F3 antibody (1:5000; Millipore, Billerica, Mass., USA), mouse anti-human TS antibody (1:400; Millipore), mouse anti-human GAPDH antibody (1:1000, Santa Cruz Biotechnology, Santa Cruz, Calif., USA) or mouse anti-human α-tubulin antibody (1:1000; Millipore). […] HRP activity was detected with SuperSignal West Pico Chemiluminescent Substrate (Thermo Fisher Scientific) and visualized in an UVP Bioimaging system.

[1] = set-up: species or system NOD/SCID mice; settings: mouse, in vivo
Method: When solid and palpable tumors with an average volume of 100-150 mm^3 were formed (at day 14), mice were randomly separated into four groups such that each group was treated either with negative control miRNA, miR-129 alone, 5-FU alone or miR-129 and 5-FU together. The miRNAs were complexed with siPORTamine and injected intratumorally while 5-FU (50 μg g^−1) was injected systemically via the tail vein. All injections were provided in 3-day intervals for a total of three times before the tumors were collected at day 24. […] Importantly, despite the overexpression, the expression levels of miR-129 copy number remained within the physiological range (less than 20 copies/cell based on cycle threshold value at 30, which is equal to the expression of miR-129 in normal colon mucosa). Moreover, the control tumor xenografts had no miR-129 expression (cycle threshold value at 35). […]
The miR-129 specific primer and the internal control RNU44 gene were purchased from Ambion. cDNA synthesis was performed by the High Capacity cDNA Synthesis Kit (Applied Biosystems, CA, USA) with miRNA specific primers. […] Expression level of miR-129 was calculated by the ΔΔCT method based on the internal control RNU44, normalized to the control group and plotted as relative quantification (RQ).

3′-UTR of BCL2 mRNA = assay: Luciferase assay, pMIR-REPORT-3′-UTR-BCL2 in HCT116 cells; type: cell-based, human; settings: 10 nM, 24 h, normalized to negative miRNA
Method: The predicted miR-129 binding sequence (wild-type, underlined) or a mismatch sequence (mutant, italic underlined) in the 3′UTR of Bcl2 mRNA were synthesized with SpeI and PmeI restriction site overhangs (Invitrogen). After annealing, double strand oligonucleotides were inserted into the pMIR-REPORT plasmid (Invitrogen), downstream of the firefly luciferase reporter. The sequences of these synthesized oligonucleotides are:
Twenty-four hours before transfection, 1.5×10^4 cells were plated in 96-well plate. 10 nM of miR-129 or negative miRNA was transfected into cells together with 100 ng of pMIR-REPORT-3′-UTR-BCL2 (wild-type or mutant) and 1 ng of Renilla luciferase plasmid pRL-SV40 (Promega, Madison, Wis., USA) by DharmaFect Duo (Dharmacon, Lafayette, Colo., USA) following the manufacturer's protocol. Luciferase assay was performed 24 hour after transfection by dual-luciferase reporter assay system (Promega). For each sample, firefly luciferase activity was normalized to Renilla luciferase activity and the inhibition by miR-129 was normalized to the control miRNA.

RKO cells = assay: Cell cycle analysis (flow cytometry), RKO; type: cell-based, human; settings: 36 h after transfection
Method: as §1
Thirty-six hours after transfection, cells were harvested and resuspended at 0.5 to 1×10^6 cells/m in modified Krishan buffer supplemented with 0.02 mg/ml RNase H (Invitrogen) and 0.05 mg/ml propidium iodide (Sigma-Aldrich, St. Louis, Mo., USA) (See, Krishan A. The Journal of Cell Biology. 1975; 66(1):188-93). Stained cells were detected by flow cytometry and results were analyzed with Modfit LT™ software. The experiments for cell cycle analysis were performed at least three times.

SW480 cells = assay: Cell proliferation assay (WST-1), SW480; type: cell-based, human; settings: day 5
Method: as §1
Twenty-four hours after transfection, cells were seeded in 96-well plates at a density of 2000 cells per well. The cell proliferation assay was performed on days 1, 3 and 5 by incubating 10 μl WST-1 (Roche Applied Science, Mannheim, Germany) in the culture medium for 1 h and reading the absorbance at 450 and 630 nm. The cell proliferation rate was calculated by […]. Experiments for the cell proliferation assay were performed at least three times.

HCT116 cells = assay: 5-FU treatment and cytotoxicity assay (WST-1); type: cell-based; settings: 72 hours, read-out: IC50 (50% growth inhibition, WST-1)
Method: Twenty-four hours after transfection, HCT116 cells were plated in 96-well plates at 2×10^3 cells per well in triplicates in 100 μl of medium. After 24 hours, fresh medium containing 5-FU alone (ranged from 1 to 4 μM) or miR-129 precursor alone (ranged from 10 nM to 40 nM) or 5-FU and miR-129 together (at a constant ratio 1:10, with increasing concentrations of both compounds) were added, and cells were cultured for an additional 72 hours. Cell viability was measured using the WST-1 assay, and concentration-dependent curves were generated based on the cell viability. The combination index was calculated by CompuSyn software. See, Chou T C et al. (2007).

miR-129: nucleic acid having a sequence of CUUUUUGCGGUCUGGGCUUGC (SEQ ID NO. 1); miR-129 precursor from Ambion used (chemistry not given here; listed as Homo sapiens)
E2F3 protein levels (E2F3): reduce E2F3 protein levels
miR-129 copy number in injected tumors [1]: less than 20 copies/cell
firefly luciferase activity of pMIR-REPORT-3′-UTR-BCL2 (wild-type) (3′-UTR of BCL2 mRNA): significantly inhibited the luciferase activity
luciferase activity of reporter with 3′-UTR of BCL2 with three point mutations in the miR-129 binding site (mutant) (3′-UTR of BCL2 mRNA): did not inhibit the luciferase activity
cell cycle arrest (G1/S and G2/S ratios) (RKO cells): at G1 checkpoint
cell proliferation reduced compared to negative controls (SW480 cells): 44.7%
IC50 (HCT116 cells; miR-129 alone): 11.2 nM
IC50 (HCT116 cells; miR-129 when combined with 5-FU (fixed ratio 1:10)): 6.3 nM
